Consider 41 compounds from ChEMBL document CHEMBL3988442, “University of Dundee, Small-Polar-MMV Screening Library” (2021).

Values joined by “and” are separate entries in the source; they are usually repeats but may differ in a detail not shown here. Identical values can stand only once.

In this test the target is T1, Coenzyme A biosynthesis bifunctional protein CoaBC (Mycobacterium tuberculosis (strain ATCC 25618 / H37Rv), UniProt P9WNZ1).
T1 sequence (P9WNZ1 whole entry): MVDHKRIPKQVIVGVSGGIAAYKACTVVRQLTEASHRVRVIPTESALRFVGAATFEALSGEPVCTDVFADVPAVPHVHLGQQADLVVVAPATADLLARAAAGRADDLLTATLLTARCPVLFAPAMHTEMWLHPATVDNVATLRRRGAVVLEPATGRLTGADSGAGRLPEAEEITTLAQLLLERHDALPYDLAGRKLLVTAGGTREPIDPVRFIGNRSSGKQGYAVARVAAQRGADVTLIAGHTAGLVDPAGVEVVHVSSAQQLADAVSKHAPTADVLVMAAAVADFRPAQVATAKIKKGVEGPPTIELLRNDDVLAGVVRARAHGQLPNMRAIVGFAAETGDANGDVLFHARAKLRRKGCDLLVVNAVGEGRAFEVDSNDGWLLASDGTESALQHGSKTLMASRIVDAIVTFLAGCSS
As to the kind of experiment: Biomol Green assay for MtCoaBC inhibitor, OD650 read. The format is functional.

As a reminder, the IC50 is the concentration that inhibits the measured activity by half. Read a high IC50 as weaker potency. As for `Cc1cccc(-c2cc(C(=O)O)sn2)c1`, the 50% inhibitory concentration (IC50) is > 50.1 µM.
As for `Cc1nn(C)c(C)c1NC(=O)CN1CCN(c2nccs2)C(C)C1` (stereo unspecified), the figure is > 30.2 µM; as for `Cc1noc(C2CCC3(CCN(C(=O)c4ccncn4)CC3)O2)n1` (stereo unspecified), > 30.2 µM.
As for `COCCN1CC(C(=O)N(CCN(C)C)Cc2ccc(C)s2)CC1=O` (stereo unspecified), the figure is > 30.2 µM.
The figure for `Cc1csc(CN2CCC(C(=O)O)(n3ccc(-c4ccco4)n3)CC2)n1` is > 30.2 µM; for `Cc1cncc(C(=O)N2CCO[C@H]3[C@H](OCCN(C)C)CC[C@@H]32)c1` it is > 30.2 µM; for `CC(C)n1nnnc1-c1ccc(NC(=O)C(C)(C)C#N)cc1F` it is > 30.2 µM.
With `CC(C)N1CC2(CCC1=O)CCN(c1ccnc3ccccc13)CC2`, the IC50 was > 30.2 µM.
As for `CC1(C)CN(CCC(=O)NCc2cccc(Cl)c2)CC[C@]1(C)O`, the figure is > 30.2 µM; as for `C1=C(CNC2CCc3ncnn3C2)COc2ccccc21` (stereo unspecified), > 30.2 µM.
For the compound `O=C(C1CC1)N1CCC(c2nc(O)c3c(n2)CCN(C2CCCC2)C3)C1` (stereo unspecified), the half-maximal inhibitory concentration (IC50) is > 30.2 µM.
The figure for `CCN1CCCC1CNC(=O)Cc1c(-c2ccc(Cl)cc2)n[nH]c1C` (stereo unspecified) is > 30.2 µM; for `CN(CC(C)(CO)CO)C(=O)Nc1cc(Cl)cc(Cl)c1` it is > 30.2 µM.
The figure for `COc1ccc(-c2noc(C3CC(C(C)C)=NO3)n2)cc1` (stereo unspecified) is > 30.2 µM; for `COc1ccc(NC2CCCN(Cc3cnc(N(C)C)s3)C2)cc1OC` (stereo unspecified) it is > 30.2 µM; for `Fc1ccc(Oc2nccnc2C2CCN(C3CCOCC3)CC2)cc1` it is > 30.2 µM.
The figure for `Cc1c(C(=O)N2CCC2)nnn1-c1ccc2ncccc2c1` is > 30.2 µM.
Consider `CCOCC1CN(Cc2ccoc2)Cc2cn(CC3CC3)nc21` (stereo unspecified), for which the IC50 was > 30.2 µM.
The figure for `Cc1ccc(CN2CCC3(CC2)C(=O)Nc2ccccc23)s1` is > 30.2 µM.
The figure for `COc1cccc(CNC(=O)c2cc(C)nc(N3CCCCC3)n2)c1` is > 30.2 µM; for `CN1C[C@@H](C(=O)N2CCCOCC2)[C@@]2(CCc3ccccc3C(=O)N2)C1` it is > 30.2 µM.
As for `COC1CCN(CCNC(=O)NC(C)c2ccc(F)c(F)c2)CC1` (stereo unspecified), the figure is > 30.2 µM.
As to `COCCC1CCN([C@@H]2c3ccccc3C3(CCNCC3)[C@H]2O)CC1`, the IC50 was > 30.2 µM.
The figure for `COCC(=O)N1CCC(Oc2cccc(C)c2)CC1` is > 30.2 µM.
Regarding `Cc1nn(-c2ccccc2)cc1C(=O)N1CCCC1c1cnn(C)c1` (stereo unspecified), the IC50 is > 30.2 µM.
As for `CN(C)CC(=O)N1CCC2(CC1)CN(c1ccsc1)C(=O)CO2`, the figure is > 30.2 µM.
On to `COc1ccc(CC(=O)Nc2ccc3ncn(C(C)C)c(=O)c3c2)cc1`, for which the IC50 was > 30.2 µM.
Regarding `CC(C)c1noc(CN2CCN(C(=O)c3cccnc3O)CC2)n1`, the concentration for half-maximal inhibition (IC50) was > 30.2 µM.
For the compound `CCNC(=O)C1(Cc2cc(-c3ccccc3)no2)CCCN(C)C1` (stereo unspecified), the IC50 was > 30.2 µM.
Regarding `Cc1ccc(CCCC(=O)N(C)CCN2CCOCC2)cc1`, the IC50 was > 30.2 µM.
As for `COCC1c2nnn(CC3CC3)c2CCN1C(=O)c1cccn1C` (stereo unspecified), the figure is > 30.2 µM; as for `Cc1ccc(S(=O)(=O)Nc2ccc(N3CCSCC3)c(C(=O)O)c2)s1`, > 30.2 µM (2×) and 32.4 µM and 45.1 µM.
Take `CCC(=O)N1CCc2[nH]cnc2C12CCN(CC1CCOC1)CC2` (stereo unspecified): the IC50 is > 30.2 µM.
As for `NC(=O)CCNC(=O)C1(N2CCCCC2)Cc2ccccc2C1`, the figure is > 30.2 µM; as for `CCNC(=O)C1(Cc2cc(-c3ccc(C)cc3)no2)CCCN(C)C1` (stereo unspecified), > 30.2 µM.
As for `O=C(Nc1ccc(-n2cncn2)nc1)N(CC1CCOC1)C1CC1` (stereo unspecified), the figure is > 30.2 µM.
The figure for `Cc1cccc(C(=O)NCC2CCS(=O)(=O)C2)n1` (stereo unspecified) is > 30.2 µM; for `Cn1cnc2cc(NC(=O)c3n[nH]c4c3CCC4)ccc21` it is > 30.2 µM; for `COc1ccc(-n2cc(CNC(=O)c3cc[nH]n3)nn2)cc1` it is > 30.2 µM.
For the compound `Cc1ccc(S(=O)(=O)NC[C@H]2OC[C@@H](NCc3cccs3)[C@@H]2O)cc1`, the 50% inhibitory concentration (IC50) is > 30.2 µM.
As to `CC(C)CC(NC(=O)c1cccs1)c1nc2cccnc2n1C` (stereo unspecified), the half-inhibitory concentration (IC50) is > 30.2 µM.
